Results taken from US20230055237A1, “COMPOUNDS AND METHODS FOR THE TREATMENT OF CYSTIC FIBROSIS” (Flatley Discovery Lab, LLC, priority 2019, published 2023).

Target: T1, CFTR (Homo sapiens, UniProt P13569, DEL508-508)
T1 construct: Primary CF airway epithelial cells were obtained from the UNC Cystic Fibrosis Tissue Procurement and Cell Culture Core; host or cells: primary CF airway epithelial cells, differentiated at the air-liquid interface
Experiment: Equivalent current assay in primary CF airway epithelial cells (NAUC, combination with 1st site corrector FDL169 or VX-809)
Type: cell-based
Conditions: 37° C., 24 h

[1] = test compound 3 μM in combination with 1st site corrector VX-809 (3 μM)
[2] = test compound 10 μM in combination with 1st site corrector VX-809 (3 μM)
[3] = test compound 1 μM in combination with 1st site corrector VX-809 (3 μM)
[4] = test compound 1 μM in combination with 1st site corrector FDL169 (3 μM)
[5] = test compound 3 μM in combination with 1st site corrector FDL169 (3 μM)
[6] = test compound 10 μM in combination with 1st site corrector FDL169 (3 μM)

T1 sequence (P13569 with tags, fused parts or gaps DEL508-508): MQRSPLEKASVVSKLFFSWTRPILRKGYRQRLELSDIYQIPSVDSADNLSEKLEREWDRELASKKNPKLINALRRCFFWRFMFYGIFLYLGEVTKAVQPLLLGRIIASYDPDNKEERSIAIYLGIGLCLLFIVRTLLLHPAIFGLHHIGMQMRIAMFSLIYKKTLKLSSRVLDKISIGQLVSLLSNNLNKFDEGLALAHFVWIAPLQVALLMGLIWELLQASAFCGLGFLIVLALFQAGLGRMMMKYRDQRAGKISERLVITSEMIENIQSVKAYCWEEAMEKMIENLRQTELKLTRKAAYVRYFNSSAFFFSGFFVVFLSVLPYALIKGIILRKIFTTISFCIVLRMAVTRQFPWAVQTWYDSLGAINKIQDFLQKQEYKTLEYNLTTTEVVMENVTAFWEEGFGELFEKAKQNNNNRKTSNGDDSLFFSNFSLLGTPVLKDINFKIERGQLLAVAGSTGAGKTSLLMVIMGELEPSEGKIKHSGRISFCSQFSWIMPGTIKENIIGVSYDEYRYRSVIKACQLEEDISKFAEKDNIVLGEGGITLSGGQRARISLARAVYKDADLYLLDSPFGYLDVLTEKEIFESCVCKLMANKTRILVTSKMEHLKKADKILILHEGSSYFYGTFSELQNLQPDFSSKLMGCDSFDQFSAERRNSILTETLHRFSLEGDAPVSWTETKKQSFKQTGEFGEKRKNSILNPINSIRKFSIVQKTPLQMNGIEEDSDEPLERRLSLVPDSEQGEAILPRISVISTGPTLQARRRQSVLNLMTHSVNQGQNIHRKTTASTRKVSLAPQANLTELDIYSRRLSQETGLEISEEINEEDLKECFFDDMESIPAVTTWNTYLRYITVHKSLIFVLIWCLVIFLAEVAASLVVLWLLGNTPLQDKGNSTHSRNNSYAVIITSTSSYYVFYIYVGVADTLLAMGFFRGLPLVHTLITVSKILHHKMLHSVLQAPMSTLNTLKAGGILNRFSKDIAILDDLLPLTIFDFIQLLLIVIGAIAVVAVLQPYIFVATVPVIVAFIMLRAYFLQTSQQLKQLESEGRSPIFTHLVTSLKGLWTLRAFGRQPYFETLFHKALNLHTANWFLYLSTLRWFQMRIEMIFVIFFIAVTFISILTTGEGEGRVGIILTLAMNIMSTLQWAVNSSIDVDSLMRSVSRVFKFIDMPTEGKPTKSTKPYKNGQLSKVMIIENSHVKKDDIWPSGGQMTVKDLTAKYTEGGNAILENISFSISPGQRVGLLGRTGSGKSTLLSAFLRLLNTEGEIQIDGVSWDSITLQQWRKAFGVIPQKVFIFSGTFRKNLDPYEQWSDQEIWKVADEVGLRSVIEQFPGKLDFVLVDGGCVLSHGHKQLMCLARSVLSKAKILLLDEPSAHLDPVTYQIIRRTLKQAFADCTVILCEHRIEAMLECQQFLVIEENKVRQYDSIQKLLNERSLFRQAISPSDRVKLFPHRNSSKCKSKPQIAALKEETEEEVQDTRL

Q: What does the source list for `CC1(C)CC2C(C(=O)Nc3cc(Cl)cc(Cl)c3)C(C(=O)O)C3(C(=O)Nc4c(Cl)cc(Cl)cc43)N2C1` (stereo not drawn) [Example 13]?
A: Nauc @ 3 μM [1]: +++ (NAUC “+++” refers to an observed NAUC>170% of positive control); Nauc @ 10 μM [2]: +++ (NAUC “+++” refers to an observed NAUC>170% of positive control)

Q: With `O=C(Nc1cc(Cl)cc(Cl)c1)C1CN(C(=O)Nc2ccccc2)C2(C(=O)Nc3c(Cl)cc(Cl)cc32)C1C(=O)O` (stereo not drawn) [Example 30] as the molecule, how does the “Nauc @ 3 μM” value [1] read?
A: + (NAUC “+” refers to an observed NAUC <140% of positive control)

Q: And the “Nauc @ 10 μM” value [2]?
A: ++ (NAUC “++” refers to an observed NAUC 170-140% of positive control)

Q: For `O=C(Nc1nccc2ccccc12)[C@H]1[C@H]2CC(F)(F)CN2[C@]2(C(=O)Nc3c(Cl)cc(Cl)cc32)[C@H]1C(=O)O` [Example 122], which “Nauc @ 1 μM” value [3] is on record?
A: + (NAUC “+” refers to an observed NAUC <140% of positive control)

Q: And the “Nauc @ 3 μM” value [1]?
A: + (NAUC “+” refers to an observed NAUC <140% of positive control)

Q: With `CC(C)(C)C(C)(C)CN(C(=O)[C@H]1[C@H]2C[C@](C)(OCc3ccccc3)CN2[C@]2(C(=O)Nc3c(Cl)cc(Cl)cc32)[C@H]1C(=O)O)c1cc(Cl)cc(Cl)c1` [Example 95] as the molecule, how does the “Nauc @ 1 μM” value [4] read?
A: +++ (NAUC “+++” refers to an observed NAUC>170% of positive control)

Q: What about the “Nauc @ 3 μM” value [5] of the same molecule?
A: +++ (NAUC “+++” refers to an observed NAUC>170% of positive control)

Q: And the “Nauc @ 10 μM” value [6]?
A: +++ (NAUC “+++” refers to an observed NAUC>170% of positive control)

Q: Which results are given for `O=C(Nc1cc(Cl)cc(Cl)c1)C1C(C(F)(F)c2cccc(Cl)c2)NC2(C(=O)Nc3c(Cl)cc(Cl)cc32)C1C(=O)O` (stereo not drawn) [Example 68.c]?
A: Nauc @ 1 μM [3]: + (NAUC “+” refers to an observed NAUC <140% of positive control); Nauc @ 3 μM [1]: +++ (NAUC “+++” refers to an observed NAUC>170% of positive control); Nauc @ 10 μM [2]: +++ (NAUC “+++” refers to an observed NAUC>170% of positive control)

Q: Which “Nauc @ 1 μM” value [3] does the source give for `O=C1C2C(C(F)(F)F)NC3(C(=O)Nc4c(Cl)cc(Cl)cc43)C2C(=O)N1c1cc(Cl)cc(Cl)c1` (single isomer, unassigned) [Example 81, 5,7-dichloro-4′4(3,5-dichlorophenyl)carbamoyl)-1-methyl-2-oxo-5′-(trifluoromethyl)spiro[indoline-3,2′-pyrrolidinel-3′-carboxylic acid] here?
A: + (NAUC “+” refers to an observed NAUC <140% of positive control)

Q: And the “Nauc @ 3 μM” value [1]?
A: ++ (NAUC “++” refers to an observed NAUC 170-140% of positive control)

Q: And the “Nauc @ 10 μM” value [2]?
A: + (NAUC “+” refers to an observed NAUC <140% of positive control)

Q: For `C[C@]1(OCc2ccccc2)C[C@@H]2[C@H](C(=O)N(CC3CC3)c3cc(Cl)cc(Cl)c3)[C@H](C(=O)O)[C@@]3(C(=O)Nc4c(Cl)cc(Cl)cc43)N2C1` [Example 93], which “Nauc @ 1 μM” value [4] is on record?
A: +++ (NAUC “+++” refers to an observed NAUC>170% of positive control)

Q: What about the “Nauc @ 3 μM” value [5] of the same molecule?
A: +++ (NAUC “+++” refers to an observed NAUC>170% of positive control)

Q: What about the “Nauc @ 10 μM” value [6] of the same molecule?
A: ++ (NAUC “++” refers to an observed NAUC 170-140% of positive control)

Q: Which “Nauc @ 1 μM” value [4] does the source give for `O=C(O)[C@H]1[C@@H](C(=O)N(CC23CC4CC(CC(C4)C2)C3)c2cc(Cl)cc(Cl)c2)[C@H]2CC(F)(F)CN2[C@]12C(=O)Nc1c(Cl)cc(Cl)cc12` [Example 194] here?
A: ++ (NAUC “++” refers to an observed NAUC 170-140% of positive control)

Q: What about the “Nauc @ 3 μM” value [5] of the same molecule?
A: +++ (NAUC “+++” refers to an observed NAUC>170% of positive control)

Q: With `O=C(Nc1cc(Cl)cc(Cl)c1)C1C2CCCN2C2(C(=O)Nc3c(Cl)cc(Cl)cc32)C1C(=O)NO` (single isomer, unassigned) [Example 234b, 5,7-dichloro-N1′-(3,5-dichlorophenyl)-N2′-hydroxy-2-oxo-1′,2′,5′,6′,7′,7a′-hexahydrospiro[indoline-3,3′-pyrrolizine]-1,2′-dicarboxamide] as the molecule, how does the “Nauc @ 1 μM” value [3] read?
A: + (NAUC “+” refers to an observed NAUC <140% of positive control)

Q: What about the “Nauc @ 3 μM” value [1] of the same molecule?
A: ++ (NAUC “++” refers to an observed NAUC 170-140% of positive control)

Q: What about the “Nauc @ 10 μM” value [2] of the same molecule?
A: +++ (NAUC “+++” refers to an observed NAUC>170% of positive control)

Q: `CC(C)C1NC2(C(=O)Nc3c(Cl)cc(Cl)cc32)C(C(=O)O)C1C(=O)Nc1cc(Cl)cc(Cl)c1` (stereo not drawn) [Example 33] was tested. Which “Nauc @ 3 μM” value [1] did it give?
A: +++ (NAUC “+++” refers to an observed NAUC>170% of positive control)

Q: And the “Nauc @ 10 μM” value [2]?
A: +++ (NAUC “+++” refers to an observed NAUC>170% of positive control)

Q: `CCN(C(=O)[C@H]1[C@H]2CC(F)(F)CN2C2(C(=O)Nc3c(Cl)cc(Cl)cc32)[C@H]1C(=O)O)c1cc(Cl)cc(Cl)c1` (stereo partly drawn) [Example 289] was tested. Which “Nauc @ 1 μM” value [3] did it give?
A: +++ (NAUC “+++” refers to an observed NAUC>170% of positive control)

Q: What about the “Nauc @ 3 μM” value [1] of the same molecule?
A: +++ (NAUC “+++” refers to an observed NAUC>170% of positive control)

Q: What about the “Nauc @ 10 μM” value [2] of the same molecule?
A: +++ (NAUC “+++” refers to an observed NAUC>170% of positive control)

Q: For `O=C(O)[C@H]1[C@@H](C(=O)N(c2cc(Cl)cc(Cl)c2)C2CC2)[C@H]2CC(F)(F)CN2[C@]12C(=O)Nc1c(Cl)cc(Cl)cc12` [Example 116], which “Nauc @ 1 μM” value [3] is on record?
A: +++ (NAUC “+++” refers to an observed NAUC>170% of positive control)

Q: What about the “Nauc @ 3 μM” value [1] of the same molecule?
A: +++ (NAUC “+++” refers to an observed NAUC>170% of positive control)

Q: And the “Nauc @ 10 μM” value [2]?
A: ++ (NAUC “++” refers to an observed NAUC 170-140% of positive control)

Q: Which “Nauc @ 10 μM” value [2] does the source give for `CN(C(=O)[C@H]1[C@H]2CC(F)(F)CN2[C@]2(C(=O)Nc3c(Cl)cc(Cl)cc32)[C@H]1C(=O)NS(C)(=O)=O)c1cc(Cl)cc(Cl)c1` (relative stereo) [Example 231, rel-(1′R,2′S,3R,7a′R)-5,7-dichloro-N1′-(3,5-dichlorophenyl)-6′,6′-difluoro-N1′-methyl-N2′-(methylsulfonyl)-2-oxo-1′,2′,5′,6′,7′,7a′-hexahydrospiro[indoline-3,3′-pyrrolizine]-1′,2′-dicarboxamide] here?
A: + (NAUC “+” refers to an observed NAUC <140% of positive control)

Q: Which “Nauc @ 1 μM” value [4] does the source give for `Cn1ccc2cc(NC(=O)[C@H]3[C@H]4CC(F)(F)CN4[C@]4(C(=O)Nc5c(Cl)cc(Cl)cc54)[C@H]3C(=O)O)ccc21` [Example 137] here?
A: + (NAUC “+” refers to an observed NAUC <140% of positive control)

Q: What about the “Nauc @ 3 μM” value [5] of the same molecule?
A: + (NAUC “+” refers to an observed NAUC <140% of positive control)

Q: What does the source list for `COc1cc(C(F)(F)F)cc(N(C)C(=O)[C@H]2[C@H]3CC(F)(F)CN3[C@]3(C(=O)Nc4c(Cl)cc(Cl)cc43)[C@H]2C(=O)O)n1` [Example 133]?
A: Nauc @ 1 μM [3]: +++ (NAUC “+++” refers to an observed NAUC>170% of positive control); Nauc @ 3 μM [1]: +++ (NAUC “+++” refers to an observed NAUC>170% of positive control); Nauc @ 10 μM [2]: +++ (NAUC “+++” refers to an observed NAUC>170% of positive control)

Q: With `O=C(O)[C@H]1[C@@H](C(=O)N(CC2CCC2)c2cc(Cl)cc(Cl)c2)[C@H]2CC(F)(F)CN2[C@]12C(=O)Nc1c(Cl)cc(Cl)cc12` [Example 148] as the molecule, how does the “Nauc @ 1 μM” value [4] read?
A: +++ (NAUC “+++” refers to an observed NAUC>170% of positive control)

Q: What about the “Nauc @ 3 μM” value [5] of the same molecule?
A: +++ (NAUC “+++” refers to an observed NAUC>170% of positive control)

Q: What about the “Nauc @ 10 μM” value [6] of the same molecule?
A: +++ (NAUC “+++” refers to an observed NAUC>170% of positive control)

Q: `O=C(Nc1cc(C(F)(F)F)ccn1)C1C2CCCN2C2(C(=O)Nc3c(Cl)cc(Cl)cc32)C1C(=O)O` (stereo not drawn) [Example 10] was tested. Which “Nauc @ 3 μM” value [1] did it give?
A: ++ (NAUC “++” refers to an observed NAUC 170-140% of positive control)

Q: What about the “Nauc @ 10 μM” value [2] of the same molecule?
A: ++ (NAUC “++” refers to an observed NAUC 170-140% of positive control)
